% of inhibition and % of control data for seven compounds are collected here from ChEMBL document CHEMBL5465560, “Selectivity Literature for EUbOPEN Chemogenomic Library” (2024).

Assay [1] concerns the target T1, Mitogen-activated protein kinase kinase kinase kinase 2 (Homo sapiens) (UniProt Q12851).
T1 sequence (whole entry): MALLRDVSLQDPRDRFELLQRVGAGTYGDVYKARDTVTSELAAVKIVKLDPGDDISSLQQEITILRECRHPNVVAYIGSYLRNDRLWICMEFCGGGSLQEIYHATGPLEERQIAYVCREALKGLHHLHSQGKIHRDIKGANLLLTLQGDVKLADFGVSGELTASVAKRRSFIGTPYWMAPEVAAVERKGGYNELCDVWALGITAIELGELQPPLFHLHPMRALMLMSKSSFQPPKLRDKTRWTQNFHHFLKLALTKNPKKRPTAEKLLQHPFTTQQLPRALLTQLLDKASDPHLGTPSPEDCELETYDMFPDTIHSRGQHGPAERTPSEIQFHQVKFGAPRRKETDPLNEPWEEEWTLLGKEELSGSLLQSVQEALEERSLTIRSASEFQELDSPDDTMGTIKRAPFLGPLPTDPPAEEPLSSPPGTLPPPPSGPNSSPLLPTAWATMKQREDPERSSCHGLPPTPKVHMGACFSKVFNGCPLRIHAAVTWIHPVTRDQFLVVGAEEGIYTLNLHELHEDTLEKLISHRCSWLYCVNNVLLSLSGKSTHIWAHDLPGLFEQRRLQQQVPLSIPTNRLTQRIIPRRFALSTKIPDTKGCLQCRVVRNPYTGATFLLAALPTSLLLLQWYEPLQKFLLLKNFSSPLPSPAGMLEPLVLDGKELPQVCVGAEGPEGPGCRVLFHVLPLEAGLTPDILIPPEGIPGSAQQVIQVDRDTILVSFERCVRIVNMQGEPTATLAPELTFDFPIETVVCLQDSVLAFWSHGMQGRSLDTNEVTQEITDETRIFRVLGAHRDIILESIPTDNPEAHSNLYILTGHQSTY
Kind of assay: Selectivity interaction (ActivX KiNativ screen (ex vivo kinase selectivity in human PBMCs)) EUB0001619a MAP4K2. Format: cell-based. Particulars: PBMC, at 1 µM.

Assay [2] has as its target Serine/threonine-protein kinase VRK2 (Homo sapiens) (UniProt Q86Y07). Briefly: Selectivity interaction (KinomeScan (DiscoverX)) EUB0000695a VRK2. Particulars: at 100 nM.
Assay [3] addresses Tyrosine-protein kinase ABL1 (Homo sapiens, UniProt P00519). Kind of assay: Selectivity interaction (KinomeScan (DiscoverX)) EUB0000666a ABL1. Particulars: at 10 µM.
Assay [4] concerns the target T2, Serine/threonine-protein kinase Chk1 (Homo sapiens) (UniProt O14757).
T2 sequence (whole entry): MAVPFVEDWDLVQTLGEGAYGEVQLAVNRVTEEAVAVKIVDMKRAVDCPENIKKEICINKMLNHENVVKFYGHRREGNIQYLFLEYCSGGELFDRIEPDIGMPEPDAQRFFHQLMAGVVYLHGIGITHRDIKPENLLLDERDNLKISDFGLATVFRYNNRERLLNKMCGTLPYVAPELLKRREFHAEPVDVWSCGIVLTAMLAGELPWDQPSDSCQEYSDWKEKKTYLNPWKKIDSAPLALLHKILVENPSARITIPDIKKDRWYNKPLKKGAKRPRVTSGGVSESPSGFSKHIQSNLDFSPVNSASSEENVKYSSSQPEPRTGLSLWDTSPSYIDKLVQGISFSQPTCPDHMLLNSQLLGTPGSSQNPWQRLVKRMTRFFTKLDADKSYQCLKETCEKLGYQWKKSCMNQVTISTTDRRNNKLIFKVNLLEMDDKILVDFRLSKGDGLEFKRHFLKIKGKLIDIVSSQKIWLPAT
Kind of assay: Selectivity interaction (KinomeScan (DiscoverX)) EUB0000666a CHEK1. Particulars: at 10 µM.

Assay [5] concerns the target Serine/threonine-protein kinase PAK 1 (Homo sapiens) (UniProt Q13153). Briefly: Selectivity interaction (Kinase screening (Nanosyn)) EUB0000604a PAK1.
Assay [6] addresses Serine/threonine-protein kinase Nek7 (Homo sapiens) (UniProt Q8TDX7). Briefly: Selectivity interaction (ActivX KiNativ screen (kinase selectivity in THP-1 cell lysates)) EUB0000639a NEK7. It is filed as subcellular. Particulars: lysate, at 0.04 µM.
The target of assay [7] is Tyrosine-protein kinase Lyn (Homo sapiens, UniProt P07948). Kind of assay: Selectivity interaction (KinomeScan (DiscoverX)) EUB0001049a LYN. The conditions noted are these: at 1 µM.
Tyrosine-protein kinase Lyn, sequence (P07948 2-512 limits assumed): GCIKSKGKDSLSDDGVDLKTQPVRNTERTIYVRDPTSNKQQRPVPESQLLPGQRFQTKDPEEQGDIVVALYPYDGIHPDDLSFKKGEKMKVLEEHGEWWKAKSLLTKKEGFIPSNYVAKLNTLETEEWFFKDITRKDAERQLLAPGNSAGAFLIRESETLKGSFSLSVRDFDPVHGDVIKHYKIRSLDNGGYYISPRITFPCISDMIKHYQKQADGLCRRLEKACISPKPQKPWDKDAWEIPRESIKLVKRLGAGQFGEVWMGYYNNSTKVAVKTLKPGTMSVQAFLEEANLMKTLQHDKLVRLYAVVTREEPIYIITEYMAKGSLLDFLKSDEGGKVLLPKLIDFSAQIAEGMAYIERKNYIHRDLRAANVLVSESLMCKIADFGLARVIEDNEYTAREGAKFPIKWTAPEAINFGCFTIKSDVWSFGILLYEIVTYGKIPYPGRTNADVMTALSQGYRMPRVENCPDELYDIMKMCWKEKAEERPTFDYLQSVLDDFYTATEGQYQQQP
The target of assay [8] is T3, Serine/threonine-protein kinase D3 (Homo sapiens) (UniProt O94806).
T3 sequence (whole entry): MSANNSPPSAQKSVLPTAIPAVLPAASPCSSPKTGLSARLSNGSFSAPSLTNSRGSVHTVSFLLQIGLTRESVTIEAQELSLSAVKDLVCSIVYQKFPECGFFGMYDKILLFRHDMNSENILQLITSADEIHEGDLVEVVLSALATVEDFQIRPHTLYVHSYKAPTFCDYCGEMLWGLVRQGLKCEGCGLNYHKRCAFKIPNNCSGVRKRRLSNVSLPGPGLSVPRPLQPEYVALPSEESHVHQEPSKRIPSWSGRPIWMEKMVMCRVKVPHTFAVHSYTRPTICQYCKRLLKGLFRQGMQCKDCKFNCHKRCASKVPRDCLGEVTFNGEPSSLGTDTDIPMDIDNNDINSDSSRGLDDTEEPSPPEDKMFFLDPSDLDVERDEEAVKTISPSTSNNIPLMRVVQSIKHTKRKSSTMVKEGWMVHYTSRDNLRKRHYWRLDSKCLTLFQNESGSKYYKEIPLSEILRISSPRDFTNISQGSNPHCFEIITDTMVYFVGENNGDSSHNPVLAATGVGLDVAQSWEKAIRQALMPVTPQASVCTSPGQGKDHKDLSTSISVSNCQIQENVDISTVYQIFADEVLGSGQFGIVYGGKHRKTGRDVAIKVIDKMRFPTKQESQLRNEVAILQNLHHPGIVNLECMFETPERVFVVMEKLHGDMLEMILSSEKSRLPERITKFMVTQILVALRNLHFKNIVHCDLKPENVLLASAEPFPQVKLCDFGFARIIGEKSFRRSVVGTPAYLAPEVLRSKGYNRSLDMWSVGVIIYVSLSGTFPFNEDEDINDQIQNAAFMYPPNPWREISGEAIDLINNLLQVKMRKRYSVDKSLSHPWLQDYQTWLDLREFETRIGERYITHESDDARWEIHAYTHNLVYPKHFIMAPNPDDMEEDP
Kind of assay: Selectivity interaction (KinomeScan (DiscoverX)) EUB0000092b PRKD3. The conditions noted are these: at 10 µM.

Assay [9] addresses Mitogen-activated protein kinase 1 (Homo sapiens, UniProt P28482). Kind of assay: Selectivity interaction (KinomeScan (DiscoverX)) EUB0000092b MAPK1. The conditions noted are these: at 10 µM.

Mitogen-activated protein kinase 1, sequence (P28482 whole entry): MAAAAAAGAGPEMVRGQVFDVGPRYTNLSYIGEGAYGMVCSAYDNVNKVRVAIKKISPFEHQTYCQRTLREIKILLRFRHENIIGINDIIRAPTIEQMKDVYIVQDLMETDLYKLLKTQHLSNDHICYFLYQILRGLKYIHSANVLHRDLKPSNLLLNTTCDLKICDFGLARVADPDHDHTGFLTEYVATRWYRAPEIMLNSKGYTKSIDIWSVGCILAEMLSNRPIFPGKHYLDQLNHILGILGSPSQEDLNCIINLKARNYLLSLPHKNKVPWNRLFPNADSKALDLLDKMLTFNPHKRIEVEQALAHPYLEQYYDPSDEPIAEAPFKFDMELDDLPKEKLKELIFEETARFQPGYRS
Serine/threonine-protein kinase Nek7 (Homo sapiens), sequence (Q8TDX7 whole entry, looked up): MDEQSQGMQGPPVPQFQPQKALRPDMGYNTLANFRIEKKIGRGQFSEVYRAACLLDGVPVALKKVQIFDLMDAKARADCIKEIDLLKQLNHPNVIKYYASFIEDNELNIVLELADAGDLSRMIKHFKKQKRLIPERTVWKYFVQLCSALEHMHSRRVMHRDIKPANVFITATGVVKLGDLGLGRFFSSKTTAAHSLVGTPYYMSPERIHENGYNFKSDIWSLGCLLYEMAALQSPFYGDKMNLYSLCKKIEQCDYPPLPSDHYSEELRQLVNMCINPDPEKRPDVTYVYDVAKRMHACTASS
Serine/threonine-protein kinase PAK 1 (Homo sapiens), sequence (Q13153 whole entry): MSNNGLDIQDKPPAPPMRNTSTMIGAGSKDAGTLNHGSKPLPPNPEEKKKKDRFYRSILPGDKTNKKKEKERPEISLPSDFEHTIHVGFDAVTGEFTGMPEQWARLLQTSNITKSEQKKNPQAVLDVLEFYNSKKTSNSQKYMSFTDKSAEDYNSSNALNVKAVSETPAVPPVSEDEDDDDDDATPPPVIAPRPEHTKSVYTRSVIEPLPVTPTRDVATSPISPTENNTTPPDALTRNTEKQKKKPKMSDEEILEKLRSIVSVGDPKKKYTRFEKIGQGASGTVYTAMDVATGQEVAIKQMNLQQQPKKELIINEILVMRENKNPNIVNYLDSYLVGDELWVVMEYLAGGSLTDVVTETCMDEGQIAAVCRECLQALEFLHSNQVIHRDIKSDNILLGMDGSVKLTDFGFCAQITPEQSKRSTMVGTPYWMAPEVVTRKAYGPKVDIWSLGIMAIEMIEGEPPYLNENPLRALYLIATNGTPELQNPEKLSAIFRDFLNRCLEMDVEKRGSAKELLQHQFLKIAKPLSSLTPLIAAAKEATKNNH
Serine/threonine-protein kinase VRK2 (Homo sapiens), sequence (Q86Y07 whole entry): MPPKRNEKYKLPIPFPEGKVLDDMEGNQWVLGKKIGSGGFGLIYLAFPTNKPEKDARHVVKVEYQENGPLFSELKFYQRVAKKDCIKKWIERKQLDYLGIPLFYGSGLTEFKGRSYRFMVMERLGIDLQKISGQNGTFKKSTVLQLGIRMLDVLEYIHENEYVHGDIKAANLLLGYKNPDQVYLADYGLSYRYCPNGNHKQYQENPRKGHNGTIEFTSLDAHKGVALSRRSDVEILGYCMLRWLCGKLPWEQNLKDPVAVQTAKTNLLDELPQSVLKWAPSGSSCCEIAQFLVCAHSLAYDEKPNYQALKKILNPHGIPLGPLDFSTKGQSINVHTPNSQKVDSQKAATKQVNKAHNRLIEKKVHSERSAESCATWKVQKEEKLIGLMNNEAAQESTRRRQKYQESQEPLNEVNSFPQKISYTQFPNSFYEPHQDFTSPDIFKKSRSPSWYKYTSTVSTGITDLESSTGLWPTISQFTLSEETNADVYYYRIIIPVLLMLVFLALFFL
Tyrosine-protein kinase ABL1, sequence (P00519 whole entry): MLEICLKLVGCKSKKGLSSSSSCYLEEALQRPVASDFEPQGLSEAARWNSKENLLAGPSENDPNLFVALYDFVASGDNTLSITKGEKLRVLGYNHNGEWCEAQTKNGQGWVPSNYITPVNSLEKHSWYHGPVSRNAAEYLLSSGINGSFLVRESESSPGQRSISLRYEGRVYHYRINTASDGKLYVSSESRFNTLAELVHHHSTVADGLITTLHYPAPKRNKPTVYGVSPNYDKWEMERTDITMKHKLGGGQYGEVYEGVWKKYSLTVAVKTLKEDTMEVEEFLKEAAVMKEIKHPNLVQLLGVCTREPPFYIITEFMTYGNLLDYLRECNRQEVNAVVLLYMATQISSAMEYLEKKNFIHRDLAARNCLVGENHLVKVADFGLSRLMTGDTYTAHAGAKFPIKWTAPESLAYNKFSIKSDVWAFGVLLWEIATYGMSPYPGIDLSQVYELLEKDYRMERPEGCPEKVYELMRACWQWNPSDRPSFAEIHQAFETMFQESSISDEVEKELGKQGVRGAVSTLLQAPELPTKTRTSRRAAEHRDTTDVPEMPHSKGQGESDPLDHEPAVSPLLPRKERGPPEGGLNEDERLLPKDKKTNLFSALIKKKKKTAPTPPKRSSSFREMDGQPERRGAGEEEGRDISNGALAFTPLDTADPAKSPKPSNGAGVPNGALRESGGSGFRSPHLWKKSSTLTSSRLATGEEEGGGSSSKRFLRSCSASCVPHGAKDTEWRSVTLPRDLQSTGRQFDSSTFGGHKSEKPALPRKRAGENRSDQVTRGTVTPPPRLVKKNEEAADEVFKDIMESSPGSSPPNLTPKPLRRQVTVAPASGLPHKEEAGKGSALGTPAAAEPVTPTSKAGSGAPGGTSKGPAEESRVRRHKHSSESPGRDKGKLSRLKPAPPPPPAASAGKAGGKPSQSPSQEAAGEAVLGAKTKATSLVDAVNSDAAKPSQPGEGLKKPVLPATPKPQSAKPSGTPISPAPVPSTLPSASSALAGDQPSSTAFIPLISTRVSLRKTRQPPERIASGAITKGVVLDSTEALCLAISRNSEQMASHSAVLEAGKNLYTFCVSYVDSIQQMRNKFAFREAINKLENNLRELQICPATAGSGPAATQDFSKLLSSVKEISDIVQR

Consider `N#Cc1cccc(-c2c[nH]c3ncnc(N4CCOCC4)c23)c1`, for which, in assay [1], the % of inhibition worked out at 31%.

In [2], `Cc1cc(F)c(C(=O)Nc2cccc(-c3nncn3C(C)C)n2)cc1-n1cnc(C2CC2)c1` came in with a % of control of 100%.

Consider `O=C(NOC[C@H](O)CO)c1ccc(F)c(F)c1Nc1ccc(I)cc1F`, for which the % of control turned out to be 97% in [3] and 74% in assay [4]. For the compound `Cc1cnc(Nc2ccc(F)cc2Cl)nc1-c1c[nH]c(C(=O)N[C@H](CO)c2cccc(Cl)c2)c1`, in [5], the % of inhibition turned out to be 3%. Take `CC[C@@H]1[C@H](F)C(=O)N[C@@H]1COc1nccc2cc(C(N)=O)c(OC)cc12` [ZIMLOVISERTIB]: the % of inhibition in assay [6] worked out at 1.5%. Regarding `COc1cc(Nc2nc(C)cc(-c3cnn4nc(OC)ccc34)n2)cc(C(F)(F)F)c1`, the % of control in assay [7] stood at 89%. On to `CCC(=O)N1CCN(c2ccc(-n3c(=O)ccc4cnc5ccc(-c6cnc7ccccc7c6)cc5c43)cc2C(F)(F)F)CC1`, for which the % of control in assay [8] and in assay [9] was 100% in each case.
